In brackets after ≈: the same amount, converted by molar mass. Like-named read-outs stand apart in the source and are kept apart here. Where a SMILES comes first, the peptide text is derived from it.
Key:
P. aeruginosa ATCC 27853 [1] = type: cell-based, Pseudomonas aeruginosa
Description: (§1) All plates were placed at 37°C overnight.

P. aeruginosa ATCC 39324 = type: cell-based, Pseudomonas aeruginosa
Description: as §1

293T human cell line = assay: Mammalian cell cytotoxicity (CellTiter Glo); type: cell-based
Description: On day one, cells from an established 293T human cell line were seeded onto 96-well flat-bottom white plates (10,000 293T cells/well). On day two, dilution plates were prepared by diluting compound in cell growth medium to two times the final starting concentration and then carrying out serial two-fold dilutions across the plate. Medium from the cell growth assay plates was then aspirated, and 50 μl from the compound dilution plates were transferred to the assay plates. Fifty microliters of fresh media were then added to all the wells. The plates were incubated at 37°C, 5% CO2 for three days. […]. Media from the assay plates was aspirated, and 100 μl of CellTiter Glo/growth media mix was added to all wells. After five minutes, luminescence was read, and% inhibition vs. compound concentration was plotted.

E. coli ATCC 25922 = conditions: CLSI microdilution, 2-fold dilutions, ~5 x 10^5 cells/ml, 37°C, 18 hours; MIC = at least 80% growth inhibition
Description: (§2) MICs and a killing assay were performed in this study. MICs were determined according to CLSI guidelines, using 2-fold serial compound dilutions in 96-well microtiter plates. Briefly, compounds were diluted in water across a mother plate and then 2 μl were stamped to assay plates—one plate for each strain to be tested. Bacterial strains were sub-cultured overnight on agar plates at 37°C. […] These concentrated cultures were diluted 1:200 in growth media to approximately 5 x 10^5 cells/ml. All assay plates received 100 μL diluted culture per well. All plates were placed at 37°C overnight. […] Wells at and above the MIC should appear devoid of growth when visualized.

S. aureus 29213 = test system: S. aureus 29213
Description: as §2

P. aeruginosa BAA-2110 = assay: Killing assay; type: cell-based, Pseudomonas aeruginosa; conditions: third-generation cephalosporin-resistant strain; PBS + 1% BSA, 37°C, 90 minutes
Description: (§3) Overnight plates were used to seed 30 ml cultures of growth media in 250 ml vented flasks. Cultures were grown aerobically at 37°C with shaking at 150 rpm. Growth was monitored at A600, and bacterial cells were harvested at mid-log growth. Ten milliliters of culture were pelleted at 4000 x g for 10 minutes and washed once with PBS + 1% BSA (PBSA) prior to resuspension in 2 ml of PBSA. The concentrated culture was used to seed 6 ml tubes of PBSA to an OD giving a concentration of 1 x 10^8 cells/ml. Cultures were diluted to 1 x10^4 cells/ml in PBSA. Test substances were diluted in PBSA, and 50 μL per concentration tested were loaded into a 96-well polypropylene microtiter plate. Fifty microliters of diluted culture were added to all test wells and all no-compound control wells. Plates were shaken and then incubated at 37°C for 90 minutes without shaking. Ten microliters from each assay well were plated onto agar plates and incubated at 37°C overnight. Percent killing was determined by the CFU for test wells vs. the CFU for no-compound control wells.

P. aeruginosa = assay: Killing assay, strains not itemised; type: cell-based, Pseudomonas aeruginosa; conditions: P. aeruginosa ATCC strains; 1 x10^4 cells/ml in PBS + 1% BSA, 37°C, 90 minutes, CFU plating; EC50 = lowest concentration causing > 50% colony reduction
Description: as §3

[2] = test system: P. aeruginosa ATCC 27853 and P. aeruginosa ATCC 39324; conditions: two ATCC strains of P. aeruginosa, CLSI
Description: as §2

in vitro = conditions: human, normal human serum diluted in water
Description: The supernatant was warmed to 37°C in a water bath. Twenty microliters of each test article were placed in a 2.0 ml round bottom microfuge tube. Two milliliters of diluted NHS were added to each tube, which was immediately vortexed, followed by transfer of 200 μl to a fresh microfuge tube placed at 37°C in a rotating rack.
Twenty microliters of each test article at 10 mg/ml were placed in a 2.0 mL round-bottomed microfuge tube. […] The tubes were immediately vortexed, and 200 μl were transferred to a fresh microfuge tube with 40 μl of 1% trichloroacetic acid (TCA). Assay tubes were placed at 37°C in a rotating rack. […] Supernatant from each tube was collected and frozen at -20°C for analysis. Mass spectrometry was used to quantify the percentage of test substance still intact.

P. aeruginosa ATCC 27853 [3] = assay: Synergy with antibiotics (MIC); type: cell-based, Pseudomonas aeruginosa; conditions: for MIC of the antibiotic alone: P. aeruginosa ATCC 27853; for MIC of the antibiotic in the presence of VSX-1: increasing amounts of VSX-1 (from 0.015 to 4 μg/mL), Fig 4 legend says P297
Description: as §1

[4] = CLSI microdilution, 2-fold dilutions, ~5 x 10^5 cells/ml, 37°C, 18 hours, MIC = lowest concentration inhibiting growth by at least 80%
[5] = CLSI microdilution, 2-fold dilutions, ~5 x 10^5 cells/ml, 37°C, 18 hours, MIC = at least 80% growth inhibition
[6] = 293T cells, 10,000 cells/well, three days, 37°C, CellTiter Glo luminescence

## CSCC[C@H](NC(=O)[C@H](CO)NC(=O)[C@H](C)NC(=O)[C@H](C)NC(=O)[C@H](C)NC(=O)[C@H](C)NC(=O)[C@H](C)NC(=O)[C@H](C)NC(=O)[C@H](C)NC(=O)[C@H](CC(N)=O)NC(=O)[C@H](C)NC(=O)[C@H](C)NC(=O)[C@@H](NC(=O)[C@H](CC(C)C)NC(=O)[C@H](C)NC(=O)[C@H](C)NC(=O)[C@H](C)NC(=O)[C@H](C)NC(=O)[C@H](C)NC(=O)[C@H](C)NC(=O)[C@H](CC(=O)O)NC(=O)[C@H](CO)NC(=O)[C@H](C)NC(=O)[C@@H](NC(=O)[C@H](Cc1c[nH]cn1)NC(=O)CNC(=O)CNC(=O)CN)[C@@H](C)O)[C@@H](C)O)C(=O)N[C@@H](C)C(=O)O [P292] (H-GGGHTASDAAAAAALTAANAAAAAAASMA-OH)
P. aeruginosa ATCC 27853 [1]; [4]
  MIC P. aeruginosa ATCC 27853: > 128 µg/mL
P. aeruginosa ATCC 39324; [5]
  MIC P. aeruginosa ATCC 39324: > 128 µg/mL
293T human cell line; [6]
  Cytotox CC50: 250 µg/mL
E. coli ATCC 25922
  MIC E. coli ATCC 25922: > 128 µg/mL
S. aureus 29213; [5]
  MIC S. aureus 29213: > 128 µg/mL

## CC[C@H](C)[C@H](NC(=O)[C@@H](NC(=O)[C@H](CCCNC(=N)N)NC(=O)[C@@H]1CCCN1C(=O)[C@H](CCCCN)NC(=O)[C@H](CCCCN)NC(=O)[C@H](Cc1ccccc1)NC(=O)[C@H](Cc1ccccc1)NC(=O)[C@H](CCC(=O)O)NC(=O)[C@H](CCCCN)NC(=O)[C@H](C)NC(=O)[C@H](CCCNC(=N)N)NC(=O)[C@H](CCCCN)NC(=O)[C@H](CCCCN)NC(=O)[C@@H](NC(=O)[C@H](CO)NC(=O)[C@H](CCCCN)NC(=O)[C@H](CCCCN)NC(=O)[C@H](CC(C)C)NC(=O)[C@H](CCCCN)NC(=O)[C@H](CCCNC(=N)N)NC(=O)[C@H](Cc1ccccc1)NC(=O)[C@H](Cc1ccccc1)NC(=O)[C@H](CCCCN)NC(=O)CNC(=O)CNC(=O)CN)C(C)C)C(C)C)C(=O)NCC(=O)N[C@H](C(=O)N[C@@H](CO)C(=O)N[C@H](C(=O)N1CCC[C@H]1C(=O)N[C@@H](Cc1ccccc1)C(=O)O)[C@@H](C)CC)C(C)C [P297] (H-GGGKFFRKLKKSVKKRAKEFFKKPRVIGVSIPF-OH)
P. aeruginosa ATCC 27853 [1]; [4]
  MIC P. aeruginosa ATCC 27853: 4 µg/mL (≈ 1.05 µM)
P. aeruginosa ATCC 39324; [5]
  MIC P. aeruginosa ATCC 39324: 2 µg/mL (≈ 0.525 µM)
293T human cell line
  cytotoxicity against 293T relative to the MIC: approximately 200 fold
293T human cell line; [6]
  Cytotox CC50: 780 µg/mL
P. aeruginosa BAA-2110
  EC50 killing assay, BAA-2110: 0.14 to 0.28 µg/mL
P. aeruginosa
  EC50 in the killing assay: 0.14 to 0.28 µg/mL
[2]
  MIC in an MIC assay: 2 to 4 µg/mL
In vitro
  half-life at 0.099 mg/ml: ~20 min

## CC[C@H](C)[C@H](NC(=O)[C@@H](NC(=O)[C@H](CCCNC(=N)N)NC(=O)[C@@H]1CCCN1C(=O)[C@H](CCCCN)NC(=O)[C@H](CCCCN)NC(=O)[C@H](Cc1ccccc1)NC(=O)[C@H](Cc1ccccc1)NC(=O)[C@H](CCCCN)NC(=O)[C@H](CCCCN)NC(=O)[C@H](C)NC(=O)[C@H](CCCNC(=N)N)NC(=O)[C@H](CCCCN)NC(=O)[C@H](CCCCN)NC(=O)[C@@H](NC(=O)[C@H](CO)NC(=O)[C@H](CC(N)=O)NC(=O)[C@H](CCCCN)NC(=O)[C@H](CC(C)C)NC(=O)[C@H](CCCCN)NC(=O)[C@H](CCCCN)NC(=O)[C@H](Cc1ccccc1)NC(=O)[C@H](Cc1ccccc1)NC(=O)[C@H](CCCCN)NC(=O)[C@H](CCCCN)NC(=O)[C@H](Cc1ccccc1)NC(=O)[C@H](CCCNC(=N)N)NC(=O)[C@H](CCCCN)NC(=O)CNC(=O)CNC(=O)CN)C(C)C)C(C)C)C(=O)NCC(=O)N[C@H](C(=O)N[C@@H](CO)C(=O)N[C@H](C(=O)N1CCC[C@H]1C(=O)N[C@@H](Cc1ccccc1)C(=O)O)[C@@H](C)CC)C(C)C [P296] (H-GGGKRFKKFFKKLKNSVKKRAKKFFKKPRVIGVSIPF-OH)
P. aeruginosa ATCC 27853 [1]; [4]
  MIC P. aeruginosa ATCC 27853: 4 µg/mL (≈ 0.925 µM)
P. aeruginosa ATCC 39324; [5]
  MIC P. aeruginosa ATCC 39324: 2 µg/mL (≈ 0.462 µM)
293T human cell line; [6]
  Cytotox CC50: 400 µg/mL

## CC[C@H](C)[C@H](NC(=O)[C@@H](NC(=O)[C@@H]1CCCN1C(=O)[C@H](CO)NC(=O)[C@H](CC(C)C)NC(=O)[C@H](CCCCN)NC(=O)[C@H](CCCCN)NC(=O)[C@H](Cc1ccccc1)NC(=O)[C@H](CC(C)C)NC(=O)[C@H](CCCCN)NC(=O)[C@H](CCCCN)NC(=O)[C@H](Cc1ccccc1)NC(=O)[C@H](CCCCN)NC(=O)[C@H](CCCCN)NC(=O)[C@H](CCCNC(=N)N)NC(=O)[C@H](Cc1ccccc1)NC(=O)[C@H](CCCNC(=N)N)NC(=O)[C@H](CCCCN)NC(=O)[C@H](Cc1ccccc1)NC(=O)[C@H](CCCNC(=N)N)NC(=O)CNC(=O)CNC(=O)CNC(=O)CN)C(C)C)C(=O)N1CCC[C@H]1C(=O)N[C@@H](CC(C)C)C(=O)N[C@@H](CC(C)C)C(=O)N[C@@H](Cc1c[nH]cn1)C(=O)N[C@@H](CC(C)C)C(=O)NCC(=O)O [P295] (H-GGGGRFKRFRKKFKKLFKKLSPVIPLLHLG-OH)
P. aeruginosa ATCC 27853 [1]; ATCC 27853, 18 h
  MIC P. aeruginosa ATCC 27853: 4 µg/mL (≈ 1.16 µM)
P. aeruginosa ATCC 39324; ATCC 39324, 18 h
  MIC P. aeruginosa ATCC 39324: 4 µg/mL (≈ 1.16 µM)
293T human cell line
  Cytotox CC50: 95 µg/mL

## colistin
P. aeruginosa ATCC 27853 [3]
  MIC of the antibiotic alone: ~ 1 μg/ml
  MIC of the antibiotic in the presence of VSX-1: < 0.1 µg/mL

## CC[C@H](C)[C@H](NC(=O)[C@@H](NC(=O)[C@@H]1CCCN1C(=O)[C@H](CO)NC(=O)[C@H](CC(C)C)NC(=O)[C@H](CCCCN)NC(=O)[C@H](CCCCN)NC(=O)[C@H](Cc1ccccc1)NC(=O)[C@H](CC(C)C)NC(=O)[C@H](CCCCN)NC(=O)[C@H](CCCCN)NC(=O)[C@H](Cc1ccccc1)NC(=O)[C@H](CCCCN)NC(=O)[C@H](CCCCN)NC(=O)[C@H](CCCNC(=N)N)NC(=O)[C@H](Cc1ccccc1)NC(=O)[C@H](CCCNC(=N)N)NC(=O)[C@H](CCCCN)NC(=O)[C@H](Cc1ccccc1)NC(=O)[C@H](CCCNC(=N)N)NC(=O)CNC(=O)CNC(=O)CNC(=O)CN)C(C)C)C(=O)N1CCC[C@H]1C(=O)N[C@@H](CC(C)C)C(=O)N[C@@H](CC(C)C)C(=O)N[C@@H](Cc1c[nH]cn1)C(=O)N[C@@H](CC(C)C)C(=O)NCC(=O)O [P267] (H-GGGGRFKRFRKKFKKLFKKLSPVIPLLHLG-OH)
P. aeruginosa ATCC 27853 [1]; ATCC 27853, 18 h
  MIC P. aeruginosa ATCC 27853: 4 µg/mL (≈ 1.16 µM)
P. aeruginosa ATCC 39324; ATCC 39324, 18 h
  MIC P. aeruginosa ATCC 39324: 4 µg/mL (≈ 1.16 µM)
S. aureus 29213; 29213, 18 h
  MIC S. aureus 29213: 16 µg/mL (≈ 4.63 µM)

## C[C@@H](O)[C@H]1C(=O)N2C(C(=O)O)=C(S[C@@H]3CN[C@H](C(=O)N(C)C)C3)[C@H](C)[C@H]12 [meropenem]
P. aeruginosa ATCC 27853 [3]
  MIC of the antibiotic alone: 0.5 µg/mL
  MIC of the antibiotic in the presence of VSX-1: < 0.1 µg/mL

## NC[C@H]1O[C@H](O[C@H]2[C@H](O)[C@@H](O[C@H]3O[C@H](CO)[C@@H](O)[C@H](N)[C@H]3O)[C@H](N)C[C@@H]2N)[C@H](N)C[C@@H]1O [tobramycin]
P. aeruginosa ATCC 27853 [3]; Fig 4 legend
  synergy: MIC of the antibiotic in the presence of P297: did not exhibit an enhanced MIC

— publication PMC10508631, “Development of an antibody fused with an antimicrobial peptide targeting Pseudomonas aeruginosa: A new approach to prevent and treat bacterial infections” (PLOS Pathogens, 2023)
